POC and IC50 data for 18 compounds are collected here from patent publication US10125134B2 (Mirati Therapeutics, Inc., priority 2016, dated 2018).

One test concerns the target KRas G12C (Homo sapiens, UniProt P01116, C118S/C51S/C80L/G12C). Nature of the test: KRas G12C Modification Assay (LCMS detection of covalent adduct). It is filed as binding. The conditions noted are these: normalized percent of control; tested at 5 μM concentration for 3 hours. The protocol: A 10 μL aliquot of each protein solution was then transferred to a 384 well microtiter plate. Initial compound stocks were generated at fifty times their desired final assay concentration in DMSO.
Exemplary compounds of Formula (I) were diluted 25-fold into K-Ras Assay Buffer to a final of two times their final concentration. A 10 μL aliquot of each diluted compound solution was then added to each of the protein solutions in the microtiter plate to initiate reaction. […] At each time point, the reactions were quenched with 20 μL of a 25 mM acetic acid solution. […] Once all reactions were quenched, the plates were heat sealed and the samples were injected into a LC/MS system for data acquisition.
Samples were injected in their liquid phase onto a C-3 reverse phase column to remove assay buffer and prepare the samples for mass spectrometer. The proteins were eluted from the column using an acetonitrile gradient and fed directly into the mass analyzer. Initial raw data analysis took place in Agilent MassHunter software immediately post data acquisition.
Raw data analysis of the intact protein was exclusively a deconvolution of the multiple charge states of each protein in solution using a maximum entropy deconvolution provided in Mass Hunter. To minimize complexity, only the data over limited mass ranges were considered for analysis, with a minimum of one Dalton mass step intervals. The heights of all masses identified during raw data analysis were exported to be further analyzed in Spotfire® data analysis software.
Final data analysis was a multistep process in the Spotfire® data analysis software package. Briefly, each protein mass was calculated as a percent of the total signal of that sample, that percentage was then normalized to the percentage of signal of the protein in the absence of reactive compounds. Those normalized signals were reported as normalized percent of control (POC). […] Key: “A”≤25% POC; “B”>25% POC−≤50% POC; “C”>50% POC and ND=not determined.

The test system of test [1] is NCI-H358 cells (express KRas G12C), Phospho-ERK. Nature of the test: Cellular inhibition of KRas G12C: Phospho-ERK in NCI-H358 cells. Type of test: cell-based. The note with it: Homo sapiens, pERK(Thr202/Tyr204) normalized with GAPDH, NCI-H358 cells, 3 hours, read-out: IC50. The protocol:
The cellular inhibition of KRAs G12C by exemplary compounds of the present invention was determined by measuring the amount of a downstream marker of KRas activity, phosphorylated ERK (“Phospho-ERK”).
Cells were plated in poly-D-Lysine coated 96-well plates at a concentration of 50,000 cells/well and allowed to attach for 8-12 hours. Diluted compounds were then added at a final concentration of 0.5% DMSO. After 3 hours, the medium was removed, 150 μL of 4% formaldehyde was added and the plates were incubated for 20 minutes. The plates were washed with PBS, and permeabilized using 150 μL of ice cold 100% methanol for 10 minutes. Non-specific antibody binding to the plates was blocked using 100 μL Licor Blocking Buffer (Li-Cor Biotechnology, Lincoln Nebr.) for 1 hour at room temperature. Positive control samples and samples lacking cells were parallel processed with test samples as standards.
The amount Phospho-ERK was determined using an antibody specific for the phosphorylated form of ERK and compared to the amount of GAPDH. […] The plates were incubated for 2 hours at room temperature. The plates were washed with PBS+0.05% Tween 20.
Secondary antibodies used to visualize primary antibodies were added as follows: Anti-rabbit-680 diluted 1:1000 and Anti-mouse-800 diluted 1:1000 in Licor Block+0.05% Tween 20 and incubated for 1 hour at room temperature. The plates were washed with PBS+0.05% Tween 20. A 100 μL aliquot of PBS was added to each well and the plates were read on a LICOR AERIUS plate reader.
The pERK(Thr202/Tyr204) signal was normalized with the GAPDH signal and percent of DMSO control values were calculated. IC50 values were generated using a 4 parameter fit of the dose response curve. Key: “A”≥0.0001−≤1 μM; and “B”>1 μM.

Like-named read-outs stand apart in the source and are kept apart here.

Regarding `C=CC(=O)N1CCN(c2ncnc3c2CCN(c2cccc4ccccc24)C3)CC1` [Example 3, 1-(4-(7-(naphthalen-1-yl)-5,6,7,8-tetrahydropyrido[3,4-d]pyrimidin-4-yl)piperazin-1-yl)prop-2-en-1-one], at KRas G12C, the POC result is “A (“A”≤25% POC)”. Besides, the half-maximal inhibitory concentration (IC50) (as a rule, the concentration at which inhibition is half-maximal) in test [1] (NCI-H358, 3 h) is over 1000 nM.
For the compound `C=CC(=O)N1CCN(c2ncnc3c2CCN(c2c(O)cccc2F)C3)CC1` [Example 4, 1-(4-(7-(2-fluoro-6-hydroxyphenyl)-5,6,7,8-tetrahydropyrido[3,4-d]pyrimidin-4-yl)piperazin-1-yl)prop-2-en-1-one], the POC entry on KRas G12C is reported as “A (“A”≤25% POC)”. In addition, the IC50 in test [1] (NCI-H358, 3 h) is over 1000 nM.
The matching figures for `C=CC(=O)N1CCN(c2ncnc3c2CCN(c2cc(O)ccc2F)C3)CC1` [Example 5, 1-(4-(7-(2-fluoro-5-hydroxyphenyl)-5,6,7,8-tetrahydropyrido[3,4-d]pyrimidin-4-yl)piperazin-1-yl)prop-2-en-1-one]: “A (“A”≤25% POC)” and over 1000 nM.
Consider `C=CC(=O)N1CCN(c2ncnc3c2CC(C)N(c2cc(O)cc4ccccc24)C3)CC1` (stereo not drawn) [Example 6, 1-(4-(7-(3-hydroxynaphthalen-1-yl)-6-methyl-5,6,7,8-tetrahydropyrido[3,4-d]pyrimidin-4-yl)piperazin-1-yl)prop-2-en-1-one], for which, on KRas G12C, the POC entry is given as “B (“B”>25% POC−≤50% POC)”. Also, in test [1], the IC50 was over 1000 nM.
`C=CC(=O)N1CCN(c2ncnc3c2CCN(c2c(C)ccc4[nH]ncc24)C3)CC1` [Example 7, 1-(4-(7-(5-methyl-1H-indazol-4-yl)-5,6,7,8-tetrahydropyrido[3,4-d]pyrimidin-4-yl)piperazin-1-yl)prop-2-en-1-one]: at KRas G12C, the POC result is on record as “A (“A”≤25% POC)”. Further, in test [1] (NCI-H358, 3 h), the IC50 is over 1000 nM.
On to `C=CC(=O)N1CCN(c2nc(O[C@@H](C)CN(C)C)nc3c2CCN(c2cc(O)cc4ccccc24)C3)CC1` [Example 8, (S)-1-(4-(2-((1-(dimethylamino)propan-2-yl)oxy)-7-(3-hydroxynaphthalen-1-yl)-5,6,7,8-tetrahydropyrido[3,4-d]pyrimidin-4-yl)piperazin-1-yl)prop-2-en-1-one], for which the POC result at KRas G12C was “B (“B”>25% POC−≤50% POC)”. In addition, the IC50 in test [1] (NCI-H358, 3 h) is over 1000 nM.
`C=CC(=O)N1CCN(c2nc(OCCN(C)C)nc3c2CCN(c2cc(O)cc4ccccc24)C3)CC1` [Example 9, 1-(4-(2-(2-(dimethylamino)ethoxy)-7-(3-hydroxynaphthalen-1-yl)-5,6,7,8-tetrahydropyrido[3,4-d]pyrimidin-4-yl)piperazin-1-yl)prop-2-en-1-one]: the POC entry on KRas G12C is “C (“C”>50% POC)”. The IC50 in test [1] (NCI-H358, 3 h) was over 1000 nM.
As to `C=CC(=O)N1CCN(c2nc(OCCCN(C)C)nc3c2CCN(c2cc(O)cc4ccccc24)C3)CC1` [Example 10, 1-(4-(2-(3-(dimethylamino)propoxy)-7-(3-hydroxynaphthalen-1-yl)-5,6,7,8-tetrahydropyrido[3,4-d]pyrimidin-4-yl)piperazin-1-yl)prop-2-en-1-one], the POC entry on KRas G12C is listed as “C (“C”>50% POC)”. The IC50 in test [1] (NCI-H358, 3 h) is over 1000 nM.
For `C=CC(=O)N1CCN(c2nc(OC(C)CN(C)C)nc3c2CCN(c2cc(O)cc4ccccc24)C3)CC1` (stereo not drawn) [Example 11, 1-(4-(2-((1-(dimethylamino)propan-2-yl)oxy)-7-(3-hydroxynaphthalen-1-yl)-5,6,7,8-tetrahydropyrido[3,4-d]pyrimidin-4-yl)piperazin-1-yl)prop-2-en-1-one], the POC result at KRas G12C was “C (“C”>50% POC)”. Further, in test [1] (NCI-H358, 3 h), the IC50 lay within 0.1 to 1000 nM.
Regarding `C=CC(=O)N1CCN(c2nc(N3CCN(C)CC3)nc3c2CCN(c2cc(O)cc4ccccc24)C3)CC1` [Example 12, 1-(4-(7-(3-hydroxynaphthalen-1-yl)-2-(4-methylpiperazin-1-yl)-5,6,7,8-tetrahydropyrido[3,4-d]pyrimidin-4-yl)piperazin-1-yl)prop-2-en-1-one], on KRas G12C, the POC entry is on record as “C (“C”>50% POC)”. For the same compound, the IC50 in test [1] (NCI-H358, 3 h) was over 1000 nM.
Take `C=CC(=O)N1CCN(c2nc(N3CCC(N(C)C)C3)nc3c2CCN(c2cc(O)cc4ccccc24)C3)CC1` (stereo not drawn) [Example 13, 1-(4-(2-(3-(dimethylamino)pyrrolidin-1-yl)-7-(3-hydroxynaphthalen-1-yl)-5,6,7,8-tetrahydropyrido[3,4-d]pyrimidin-4-yl)piperazin-1-yl)prop-2-en-1-one]: the POC result at KRas G12C is reported as “C (“C”>50% POC)”. The IC50 in test [1] (NCI-H358, 3 h) was over 1000 nM.
For the compound `C=CC(=O)N1CCN(c2nc(OCCN(C)C)nc3c2CCN(c2cc(O)cc4ccccc24)C3)C[C@@H]1C` [Example 14], on KRas G12C, the POC result is “C (“C”>50% POC)”. Besides, in test [1] (NCI-H358, 3 h), the half-maximal inhibitory concentration (IC50) was over 1000 nM.
`C=CC(=O)N1CCN(c2nc(OCCN(C)C)nc3c2CCN(c2cc(O)cc4ccccc24)C3)C[C@H]1C` [Example 15, (R)-1-(4-(2-(2-(dimethylamino)ethoxy)-7-(3-hydroxynaphthalen-1-yl)-5,6,7,8-tetrahydropyrido[3,4-d]pyrimidin-4-yl)-2-methylpiperazin-1-yl)prop-2-en-1-one]: on KRas G12C, the POC entry is reported as “C (“C”>50% POC)”. For the same compound, the IC50 in test [1] (NCI-H358, 3 h) is over 1000 nM.
In the same order, the values of `C=CC(=O)N1CC2(C1)CN(c1nc(OCCN(C)C)nc3c1CCN(c1cc(O)cc4ccccc14)C3)C2` [Example 16, 1-(6-(2-(2-(dimethylamino)ethoxy)-7-(3-hydroxynaphthalen-1-yl)-5,6,7,8-tetrahydropyrido[3,4-d]pyrimidin-4-yl)-2,6-diazaspiro[3.3]heptan-2-yl)prop-2-en-1-one] are “C (“C”>50% POC)” and over 1000 nM.
`C=CC(=O)N1CCN(c2nc(N3CCC(N(C)C)CC3)nc3c2CCN(c2cc(O)cc4ccccc24)C3)CC1` [Example 17, 1-(4-(2-(4-(dimethylamino)piperidin-1-yl)-7-(3-hydroxynaphthalen-1-yl)-5,6,7,8-tetrahydropyrido[3,4-d]pyrimidin-4-yl)piperazin-1-yl)prop-2-en-1-one]: the POC entry on KRas G12C was “B (“B”>25% POC−≤50% POC)”. In test [1] (NCI-H358, 3 h), the half-maximal inhibitory concentration (IC50) was over 1000 nM.
For the compound `C=CC(=O)N1CC2(C1)CN(c1nc(OC(C)CN(C)C)nc3c1CCN(c1cc(O)cc4ccccc14)C3)C2` (stereo not drawn) [Example 18, 1-(6-(2-((1-(dimethylamino)propan-2-yl)oxy)-7-(3-hydroxynaphthalen-1-yl)-5,6,7,8-tetrahydropyrido[3,4-d]pyrimidin-4-yl)-2,6-diazaspiro[3.3]heptan-2-yl)prop-2-en-1-one], at KRas G12C, the POC entry is “C (“C”>50% POC)”. The IC50 in test [1] is over 1000 nM.
As to `C=CC(=O)N1CCN(c2nc(O[C@H](C)CN(C)C)nc3c2CCN(c2cc(O)cc4ccccc24)C3)CC1` [Example 19, (R)-1-(4-(2-((1-(dimethylamino)propan-2-yl)oxy)-7-(3-hydroxynaphthalen-1-yl)-5,6,7,8-tetrahydropyrido[3,4-d]pyrimidin-4-yl)piperazin-1-yl)prop-2-en-1-one], the POC result at KRas G12C is “C (“C”>50% POC)”. Besides, the IC50 in test [1] (NCI-H358, 3 h) fell in the range of 0.1 to 1000 nM.
In the same order, the values of `C=CC(=O)N1CC2(C1)CN(c1nc(OCCCN(C)C)nc3c1CCN(c1cc(O)cc4ccccc14)C3)C2` [Example 20, 1-(6-(2-(3-(dimethylamino)propoxy)-7-(3-hydroxynaphthalen-1-yl)-5,6,7,8-tetrahydropyrido[3,4-d]pyrimidin-4-yl)-2,6-diazaspiro[3.3]heptan-2-yl)prop-2-en-1-one] are “C (“C”>50% POC)” and over 1000 nM.
